Measurements as given in patent US20200289430A1, “Antibacterial Treatments Using Cannabinoids” (priority 2017, published 2020).
In brackets after ≈: the same amount, converted by molar mass. Counter-ions that a name gives are not always drawn. Like-named read-outs stand apart in the source and are kept apart here.

Legend:
Assay type in all cases: cell-based
[1] = system: Propionibacterium acnes Tetracycline Resistant Clinical Isolates; assay: microbe, parasite or virus in culture; settings: Cutibacterium acnes
Description: (§1) This study, a Minimum Inhibitory Concentration (MIC), will be performed based upon the Macrodilution Broth Method outlined in CLSJ Document M07-A 10, Methods for Dilution Antimicrobial Susceptibility Tests for Bacteria that Gro111 Aerobically, Tenth Edition, and CLSI Document MI I-A8, Methods for Antimicrobial Susceptibility Testing of Anaerobic Bacteria, Eighth Edition.
(§2) The Test Material will be evaluated versus at total of 17 different microorganism strains: 7 strains of Methicillin resistant Staphylococcus aureus, 6 stains of Propionibacterium acnes, 2 strains of Erythromycin resistant Propionibacterium acnes, and 2 strains of Tetracycline resistant Propionibacterium acnes. Positive Control Material #1 will be evaluated versus 2 strains of Erythromycin resistant Propionibacterium acnes. Positive Control Material #2 will be evaluated versus 2 strains of Tetracycline resistant Propionibacterium acnes.
(§3) A suspension of each challenge strain will be prepared and exposed to each of 10 doubling dilutions of the test material or positive control materials prepared in the appropriate nutrient broth (reference Table I). Following incubation, the Minimum Inhibitory Concentration (MIC) of the test material and positive control materials will be determined visually and documented.
(§4) 2 to 6 days prior to testing, sterile tubes containing Reinforced Clostridial Medium (RCM) will be inoculated from lyophilized vials or cryogenic stock cultures containing these species. The broth cultures will be incubated anaerobically at 35±2° C. for 1 to 3 days, or until sufficient growth is observed.
(§5) The purity of each broth culture will be verified by preparing duplicate isolation streaks on Chocolate Agar with Enrichment (CAE), and incubating one plate aerobically and one anaerobically at 35±2° C.
(§6) Following incubation, initial suspensions containing approximately 10^8 CFU/mL will be prepared for each species by centrifuging the broth culture tubes, combining the resulting pellets, and resuspending them in additional broth.
(§7) Final Challenge Suspensions containing approximately 1×10^6 CFU/mL of each microorganism strain will be prepared by transferring aliquots of the 10^8 CFU/mL initial suspensions into separate containers containing a volume of the appropriate broth media sufficient to the needs of testing.
(§8) On each day of testing, the Test Material will be diluted (v/v) using the appropriate broth media to produce an intermediate solution containing […] of Cannabidiol.
(§9) A series of 1:2 (v/v) dilutions of intermediate Test Material solution will be prepared using the appropriate broth media, to produce active concentrations of 100 μg/mL, 50 μg/mL, 25 μg/mL, 12.5 μg/mL, 6.25 μg/mL, 3.125 μg/mL, 1.562 μg/mL, 0.781 μg/mL, 0.390 μg/mL, and 0.195 μg/mL. […]

[2] = system: Propionibacterium acnes Erythromycin Resistant Clinical Isolates; assay: MIC, Macrodilution Broth Method, Erythromycin resistant P. acnes clinical isolates; settings: for MIC: Cutibacterium acnes, read-out: Minimum Inhibitory Concentration (MIC); for Minimum Inhibitory Concentration (MIC): Erythromycin resistant P. acnes clinical isolate BSLI #281014Pa6
Description: as §1, §2, §3, §4, §5, §6, §7, §8, §9

Propionibacterium acnes = assay: Minimum Inhibitory Concentration (MIC), Macrodilution Broth Method, Propionibacterium acnes ATCC strains; settings: Cutibacterium acnes
Description: as §1, §2, §3, §4, §5, §6, §7, §8
(§10) A series of 1:2 (v/v) dilutions of intermediate Test Material solution will be prepared using the appropriate broth media, to produce active concentrations of 100 μg/mL, 50 μg/mL, 25 μg/mL, 12.5 μg/mL, 6.25 μg/mL, 3.125 μg/mL, 1.562 μg/mL, 0.781 μg/mL, 0.390 μg/mL, and 0.195 μg/mL.
(§11) A 1.0 mL aliquot of the intermediate Test Material solution (100 μg/mL), and 1.0 mL aliquots of each of the 9 test material dilutions prepared will be transferred to separate sterile test tubes. For each challenge microorganism, three sets of test tubes will be prepared for the Test Material.
(§12) A 1.0 mL aliquot of a challenge suspension containing approximately 1×10^6 CFU/mL will be dispensed into each dilution tube in each series.
(§13) Following inoculation, final active Test Material concentrations of 50 μg/mL, 25 μg/mL, 12.5 μg/mL, 6.25 μg/mL, 3.125 ug/ml, 1.562 μg/mL, 0.781 μg/mL, 0.390 ug/ml, 0.195 μg/mL and 0.0976 μg/mL will be produced.
(§14) Each dilution tube will contain approximately 5×10^5 CFU/mL of the challenge microorganism.
Positive Control Tubes (Growth Controls) containing a 1.0 mL aliquot of the appropriate broth media, and a 1.0 mL aliquot of challenge suspension will be prepared using each microorganism strain.
Negative Control Tubes (Sterility Controls; no microbial inoculation) of each broth media will be prepared.
Following incubation, the tubes will be examined for growth of the challenge microorganism, as determined visually on the basis of turbidity.

[3] = system: Methicillin resistant Staphylococcus aureus; assay: microbe, parasite or virus in culture
Description: as §1, §2, §3
2 to 4 days prior to testing, inocula from lyophilized vials or cryogenic stock cultures containing each species will be suspended in 0.9% Sodium Chloride Irrigation, USP (SCI), inoculated onto the surface of Tryptic Soy Agar (TSA) contained in Petri plates, and incubated at 35±2° C. for 24 to 48 hours, or until sufficient growth is observed.
24 to 48 hours prior to testing, growth from the agar plates previously prepared will be suspended in SCI.
The purity of each suspension will be verified by preparing isolation streaks of each culture on TSA. Aliquots of each suspension will then be spread-plated onto the surface of additional plates of TSA and incubated at 35±2° C. until sufficient growth is observed. This will produce lawns of the bacteria on the surface of the agar plates, and growth from these will be used to prepare the challenge suspensions.
Immediately prior to testing, an initial suspension of each species will be prepared in SCI by suspending the microorganisms from the solid media to achieve initial suspension concentrations of approximately 10^8 CFU/mL. The suspensions may be centrifuged, if deemed necessary, to achieve the desired concentration.
as §7, §8, §10, §11, §12, §13, §14

[4] = read-out: Minimum Inhibitory Concentration (MIC), Tetracycline resistant P. acnes clinical isolate BSLI #281014Pa2
[5] = read-out: Minimum Inhibitory Concentration (MIC), Tetracycline resistant P. acnes clinical isolate BSLI #281014Pa4

| SMILES | MIC [1, 4] | MIC [1, 5] | MIC [2] | Minimum Inhibitory Concentration (MIC) [2] | MIC (Propionibacterium acnes; ATCC6919, Propionibacterium acnes ATCC #6919, anaerobic, RCM broth, read-out: Minimum Inhibitory Concentration (MIC)) | MIC (Propionibacterium acnes; ATCC6922, Propionibacterium acnes ATCC #6922, anaerobic, RCM broth, read-out: Minimum Inhibitory Concentration (MIC)) | MIC (Propionibacterium acnes; ATCC6923, Propionibacterium acnes ATCC #6923, anaerobic, RCM broth, read-out: Minimum Inhibitory Concentration (MIC)) | MIC (Propionibacterium acnes; ATCC11827, Propionibacterium acnes ATCC #11827, anaerobic, RCM broth, read-out: Minimum Inhibitory Concentration (MIC)) | MIC (Propionibacterium acnes; ATCC11828, Propionibacterium acnes ATCC #11828, anaerobic, RCM broth, read-out: Minimum Inhibitory Concentration (MIC)) | MIC (Propionibacterium acnes; ATCC51277, Propionibacterium acnes ATCC #51277, anaerobic, RCM broth, read-out: Minimum Inhibitory Concentration (MIC)) | MIC (Propionibacterium acnes; all P. acnes strains tested, including strains resistant to other antibiotics, read-out: MIC against Propionibacterium acnes (summary over all strains)) | MIC ([3]; ATCC33592, read-out: Minimum Inhibitory Concentration (MIC)) | MIC ([3]; ATCCBAA41, read-out: Minimum Inhibitory Concentration (MIC)) | MIC ([3]; ATCCBAA42, read-out: Minimum Inhibitory Concentration (MIC)) | MIC ([3]; ATCCBAA44, read-out: Minimum Inhibitory Concentration (MIC)) | MIC ([3]; ATCCBAA1683, read-out: Minimum Inhibitory Concentration (MIC)) | MIC ([3]; ATCCBAA2094, read-out: Minimum Inhibitory Concentration (MIC)) | MIC ([3]; ATCCBAA2313, read-out: Minimum Inhibitory Concentration (MIC)) | MIC ([3]; read-out: MIC against Staphylococcus aureus (summary over all strains)) |
| --- | --- | --- | --- | --- | --- | --- | --- | --- | --- | --- | --- | --- | --- | --- | --- | --- | --- | --- | --- |
| CN(C)[C@@H]1C(O)=C(C(N)=O)C(=O)[C@@]2(O)C(O)=C3C(=O)c4c(O)cccc4[C@@](C)(O)[C@H]3C[C@@H]12 [Tetracycline HCl, reference compound] | 64 µg/mL | 128 µg/mL |  |  |  |  |  |  |  |  |  |  |  |  |  |  |  |  |  |
| C=C(C)[C@@H]1CCC(C)=C[C@H]1c1c(O)cc(CCCCC)cc1O [Cannabidiol] | 3.12 µg/mL (≈ 9.94 µM) | 6.25 µg/mL (≈ 19.9 µM) | 6.25 µg/mL (≈ 19.9 µM) | 6.25 µg/mL | 3.12 µg/mL (≈ 9.94 µM) | 6.25 µg/mL (≈ 19.9 µM) | 6.25 µg/mL (≈ 19.9 µM) | 3.12 µg/mL (≈ 9.94 µM) | 6.25 µg/mL (≈ 19.9 µM) | 6.25 µg/mL (≈ 19.9 µM) | 3.12 to 6.25 µg/mL (≈ 9.94 to 19.9 µM) | 1.56 µg/mL (≈ 4.97 µM) | 1.56 µg/mL (≈ 4.97 µM) | 1.56 µg/mL (≈ 4.97 µM) | 1.56 µg/mL (≈ 4.97 µM) | 1.56 µg/mL (≈ 4.97 µM) | 1.56 µg/mL (≈ 4.97 µM) | 1.56 µg/mL (≈ 4.97 µM) | ~1.56 µg/mL (≈ 4.97 µM) |
| CC[C@H]1OC(=O)[C@H](C)[C@@H](O[C@H]2C[C@@](C)(OC)[C@@H](O)[C@H](C)O2)[C@H](C)[C@@H](O[C@@H]2O[C@H](C)C[C@H](N(C)C)[C@H]2O)[C@](C)(O)C[C@@H](C)C(=O)[C@H](C)[C@@H](O)[C@]1(C)O [Erythromycin, reference compound] |  |  | 2050 µg/mL (≈ 2790 µM) | 2048 µg/mL |  |  |  |  |  |  |  |  |  |  |  |  |  |  |  |
